Reference: patent EP4707393A1, “DOUBLE-STRANDED SIRNA, CONJUGATE THEREOF AND USE THEREOF” (CMS Research & Development Pte. Ltd., priority 2023, dated 2024)

Tests used:
[1] = test system: human LPA gene (Genbank number: NM_005577.4); test: Inhibitory activity against LPA mRNA, psiCHECK-2 dual-luciferase reporter vector in Huh7 cells; type: cell-based; conditions: Huh7 cells transfected with LPA_psiCHECK-2 plasmid, RNAiMAX transfection
How it was run: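 Huh7 cells transfected with psiCHECK-2 carrying human LPA, then treated next day with compounds (3 concentrations) delivered by RNAiMAX. Dual-Glo readout of firefly and Renilla luciferase per well. Percent inhibition calculated from the reporter ratio relative to the RNAiMAX control.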

LPA mRNA = test: In vivo efficacy in LPA-HDI mouse model (liver LPA mRNA); design: species or system BALB/c mouse; conditions: 3 mg/kg single subcutaneous injection, Day 14, relative to PBS blank group, 4 mice per group
Description: The knockdown effect of the test double-stranded siRNA conjugate on the target gene LPA upon entry into the mouse is evaluated by rapid high-pressure injection of the physiological saline containing recombinant plasmid pcDNA-LPA carrying the target gene via the tail vein.
pcDNA-LPA plasmid, BALB/c mouse, PBS (phosphate buffer), and conjugates of the present invention.
Six-week-old female BALB/c mice were ordered and acclimated/quarantined for three days upon arrival in the animal room.
On Day 0, the mice were randomly grouped based on body weight data. After grouping, all mice were given a single administration via subcutaneous injection, with a dose volume of 10 mL/kg. Mice in Group 1 received PBS; mice in the other groups received the conjugates (dissolved in PBS).
On Day 13 post-administration, all mice were injected with normal saline containing the pcDNA-LPA plasmid via the tail vein within 5 seconds. The injection volume (mL) = mouse body weight (g) × 8%. The amount of plasmid injected per mouse was 10 µg.
On Day 14 post-administration, all groups of mice were euthanized by CO2 inhalation, and 2 liver samples were collected from each mouse. Liver samples were treated overnight with RNAlater at 4 °C, then RNAlater was removed, and stored at -80 °C for detection of LPA gene expression levels.

[2] = Melting temperature (Tm) by UV absorption at 260 nm; type: physicochemical; conditions: phosphate buffer solution; average of at least two independent measurements
Description: The Tm value was determined by recording the change in UV absorption at 260 nm of DNA/RNA in phosphate buffer solution as the temperature increased.
Table 6 Melting temperature (Tm) test instrument parameters
The melting temperature (Tm) was calculated from the first derivative of the smoothed heating curve, and the reported value was the average of at least two independent measurements. Table 7 Melting temperatures (Tm) of conjugates of the present disclosure

Substance	EC50 [1]	% Downregulation of LPA mRNA (LPA mRNA)	Melting temperature Tm [2]
Z42: siRNA conjugate: sense SEQ ID NO:49, ligand D01 at 3' end of sense strand, antisense SEQ ID NO:80 (sense CAGCCCCTTATTGTTATACGA; antisense NCGTATNACAATAAGGGGCNGTT; ligand D01 at sense 3' end; listed as RNA; modified_base 1: mod_base = OTHER; note = 2'-O-methylcytidine; modified_base 2: mod_base = OTHER; note = 2'-O-methyladenosine; modified_base 3: mod_base = OTHER; note = 2'-O-methylguanosine; modified_base 4..7: mod_base = OTHER; note = 2'-O-me; note = n is B33; note = 2'-deoxycytidine; modified_base 4: mod_base = OTHER; note = 2'-O-methyluridine; m)	0.31 nM	78.0%	67.75 °C
Z46: siRNA conjugate: sense SEQ ID NO:43, ligand D01 at 3' end of sense strand, antisense SEQ ID NO:66 (sense CAGCCCCTTATTGTTANACGA; antisense TCTCGTATNACAATAAGGGGCTG; ligand D01 at sense 3' end; listed as RNA; modified_base 1: mod_base = OTHER; note = 2'-O-methylcytidine; modified_base 2: mod_base = OTHER; note = 2'-O-methyladenosine; modified_base 3: mod_base = OTHER; note = 2'-O-methylguanosine; modified_base 4..7: mod_base = OTHER; note = 2'-O-me; note = 2'-O-methyluridine; modified_base 4: mod_base = OTHER; note = 2'-fluorocytidine; modified_base 5: mod_base = OTHER; note = 2'-O-methylg)	0.31 nM	89.0%	76.75 °C
